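All cell lines were grown in 96-well plates and treated with compound for 48 hours. Here, GI50 denotes the concentration required for 50% inhibition of growth.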 Active and inactive are the calls of the source. Rule as the data show it: active = GI50 up to about 1.1 µM and inactive = higher.
Experiments:
Test in all cases: DTP human tumour cell line panel, 48 h
MDA-N = test system: MDA-N
SF-539 = test system: SF-539
SK-MEL-2 = test system: SK-MEL-2
MDA-MB-435 = test system: MDA-MB-435
SF-295 = test system: SF-295
NCI-H226 = test system: NCI-H226
UO-31 = test system: UO-31
ACHN = test system: ACHN
NCI-H23 = test system: NCI-H23
HT-29 = test system: HT-29
TK-10 = test system: TK-10
SN12C = test system: SN12C
HCC 2998 = test system: HCC 2998
UACC-62 = test system: UACC-62
SK-MEL-28 = test system: SK-MEL-28
SNB-19 = test system: SNB-19
NCI-H522 = test system: NCI-H522
U-251 = test system: U-251
HOP-62 = test system: HOP-62
RXF 393 = test system: RXF 393

Row | SMILES | GI50 (MDA-N) | GI50 (SF-539) | GI50 (SK-MEL-2) | GI50 (MDA-MB-435) | GI50 (SF-295) | GI50 (NCI-H226) | GI50 (UO-31) | GI50 (ACHN) | GI50 (NCI-H23) | GI50 (HT-29) | GI50 (TK-10) | GI50 (SN12C) | GI50 (HCC 2998) | GI50 (UACC-62) | GI50 (SK-MEL-28) | GI50 (SNB-19) | GI50 (NCI-H522) | GI50 (U-251) | GI50 (HOP-62) | GI50 (RXF 393)
1 | COc1ccc(NC(=O)C(=O)C(CC2C(=O)NC(=S)NC2=O)C(=O)c2ccc3ccccc3c2)c([N+](=O)[O-])c1 (stereo not given) | > 100 µM (inactive) | > 100 µM (inactive) | > 100 µM (inactive) | > 100 µM (inactive) | > 100 µM (inactive) | > 100 µM (inactive) | > 100 µM (inactive) | > 100 µM (inactive) | > 100 µM (inactive) | > 100 µM (inactive) | > 100 µM (inactive) | > 100 µM (inactive) | > 100 µM (inactive) | > 100 µM (inactive) | > 100 µM (inactive) | > 100 µM (inactive) | > 100 µM (inactive) | > 100 µM (inactive) |  | 
2 | Cc1cc(Cl)ccc1NC(=O)C(=O)Cc1occc(=O)c1O |  | > 100 µM (inactive) | > 100 µM (inactive) |  | > 100 µM (inactive) | > 100 µM (inactive) | > 100 µM (inactive) | > 100 µM (inactive) | > 100 µM (inactive) | > 100 µM (inactive) | > 100 µM (inactive) | > 100 µM (inactive) | > 100 µM (inactive) | > 100 µM (inactive) | > 100 µM (inactive) | > 100 µM (inactive) | > 100 µM (inactive) | > 100 µM (inactive) | > 100 µM (inactive) | > 100 µM (inactive)
3 | COc1ccc2c(c1)CCc1c-2n(CCN(C)C)c2ccc(OC)cc12 | 5.46 µM (inactive) |  | 18.5 µM (inactive) | 6.32 µM (inactive) | 18.3 µM (inactive) | 3.03 µM (inactive) | 14 µM (inactive) | 14.2 µM (inactive) | 16.3 µM (inactive) | 3.44 µM (inactive) | 24.2 µM (inactive) | 12.5 µM (inactive) | 3.09 µM (inactive) | 9.42 µM (inactive) | 9.48 µM (inactive) | 11.6 µM (inactive) | 10 µM (inactive) | 12.1 µM (inactive) | 16.1 µM (inactive) | 
4 | O=C(c1ccc(Cl)cc1Cl)N(C(=O)N1CCC(c2ccccc2)CC1)c1ccccc1 |  | > 100 µM (inactive) | > 100 µM (inactive) | 55 µM (inactive) | > 100 µM (inactive) | > 100 µM (inactive) | > 100 µM (inactive) | > 100 µM (inactive) | > 100 µM (inactive) | > 100 µM (inactive) |  | > 100 µM (inactive) | > 100 µM (inactive) | 79.4 µM (inactive) | > 100 µM (inactive) | > 100 µM (inactive) |  | > 100 µM (inactive) | > 100 µM (inactive) | 
5 | COC(=O)C(=O)C(C(C)=O)C(=O)NCc1ccccc1 (stereo not given) |  | > 100 µM (inactive) | > 100 µM (inactive) |  | > 100 µM (inactive) | > 100 µM (inactive) | > 100 µM (inactive) | > 100 µM (inactive) | > 100 µM (inactive) | > 100 µM (inactive) | > 100 µM (inactive) | > 100 µM (inactive) | > 100 µM (inactive) | > 100 µM (inactive) | > 100 µM (inactive) | > 100 µM (inactive) | > 100 µM (inactive) | 82.2 µM (inactive) | > 100 µM (inactive) | > 100 µM (inactive)
6 | CCc1cccc(C(C)CC)c1NC(=O)C(=O)Cc1nc2ccccc2o1 (stereo not given) |  | > 50 µM (inactive) | > 50 µM (inactive) |  | > 50 µM (inactive) | 3.82 µM (inactive) | > 50 µM (inactive) | > 50 µM (inactive) | > 50 µM (inactive) | > 50 µM (inactive) | > 50 µM (inactive) | > 50 µM (inactive) | > 50 µM (inactive) | > 50 µM (inactive) | > 50 µM (inactive) | > 50 µM (inactive) | > 50 µM (inactive) | > 50 µM (inactive) | > 50 µM (inactive) | > 50 µM (inactive)
7 | O=c1o[nH]/c(=N/c2ccccc2)n1-c1ccccc1 | > 100 µM (inactive) | > 100 µM (inactive) | > 100 µM (inactive) |  | > 100 µM (inactive) | > 100 µM (inactive) | > 100 µM (inactive) | > 100 µM (inactive) | > 100 µM (inactive) | > 100 µM (inactive) | > 100 µM (inactive) | > 100 µM (inactive) | 93.3 µM (inactive) | > 100 µM (inactive) | > 100 µM (inactive) | > 100 µM (inactive) |  | > 100 µM (inactive) | > 100 µM (inactive) | > 100 µM (inactive)
8 | Cc1cnc2nc(-c3ccc(Cl)cc3)cc(O)c2c1 | 0.959 µM (active) | 2.37 µM (inactive) | 5.82 µM (inactive) | 0.47 µM (active) | 3.55 µM (inactive) | 13.2 µM (inactive) | 8.59 µM (inactive) | 6.21 µM (inactive) | 29.4 µM (inactive) | 3.27 µM (inactive) | 43.2 µM (inactive) | 6.31 µM (inactive) | 11.4 µM (inactive) | 5.5 µM (inactive) | > 22.9 µM (inactive) | 5.35 µM (inactive) | 5.47 µM (inactive) | 3.9 µM (inactive) | 5.86 µM (inactive) | 
9 | COC(=O)CCC(NC(=S)N/N=C(\C)c1cnc2ccccc2n1)C(=O)OC (stereo not given) |  | 41.8 µM (inactive) | 56.8 µM (inactive) |  | 49.8 µM (inactive) | 41.8 µM (inactive) | 27.4 µM (inactive) | 20.6 µM (inactive) | 58.3 µM (inactive) | 14.2 µM (inactive) | > 100 µM (inactive) | 60.1 µM (inactive) | 32.1 µM (inactive) | 16.9 µM (inactive) | 40.9 µM (inactive) | > 100 µM (inactive) | 11.2 µM (inactive) | 43.2 µM (inactive) | 45.7 µM (inactive) | 30.2 µM (inactive)
10 | O=C1C(OC(=O)c2ccccc2)=C(c2ccc(O)cc2)C(=O)C(OC(=O)c2ccccc2)=C1c1ccc(O)cc1 | > 100 µM (inactive) | > 100 µM (inactive) | 32 µM (inactive) | > 100 µM (inactive) | 61 µM (inactive) | > 100 µM (inactive) | > 100 µM (inactive) | > 100 µM (inactive) | > 100 µM (inactive) | > 100 µM (inactive) | > 100 µM (inactive) | > 100 µM (inactive) | 40.3 µM (inactive) | 44.7 µM (inactive) | > 100 µM (inactive) | 46 µM (inactive) | > 100 µM (inactive) | 40.5 µM (inactive) |  | 
11 | CC1(C)C(OC(=O)c2ccccc2)C[C@]23CCC[C@](C)(C[C@@H](O)C12)C3 (stereo not given in full) | 18.9 µM (inactive) |  | 17.6 µM (inactive) | 18 µM (inactive) | 13.9 µM (inactive) | 18.8 µM (inactive) | 18.8 µM (inactive) | 17.9 µM (inactive) | 16.9 µM (inactive) | 16.1 µM (inactive) | 29.5 µM (inactive) | 18.4 µM (inactive) |  | 15.2 µM (inactive) | 15.8 µM (inactive) | 23.6 µM (inactive) | 15.5 µM (inactive) | > 10 µM (inactive) | 24 µM (inactive) | 
12 | COc1ccc(/C=C\c2cc(OC)c3c(c2)OCO3)c(O)c1O |  | 2.08 µM (inactive) | 8.53 µM (inactive) |  | 8.3 µM (inactive) | 16.1 µM (inactive) | 5.87 µM (inactive) | 11.2 µM (inactive) | 4.98 µM (inactive) | 20.7 µM (inactive) | 24.9 µM (inactive) | 15 µM (inactive) | 21.5 µM (inactive) | 3.33 µM (inactive) | 5.65 µM (inactive) | 4.74 µM (inactive) | 1.7 µM (inactive) | 6.05 µM (inactive) | 7.59 µM (inactive) | 3.94 µM (inactive)
13 | CCCC[S+]([O-])CCC(N)C(=O)O (stereo not given) | > 100 µM (inactive) | > 100 µM (inactive) |  |  | > 100 µM (inactive) | > 100 µM (inactive) | > 100 µM (inactive) | > 100 µM (inactive) | > 100 µM (inactive) | > 100 µM (inactive) | > 100 µM (inactive) | > 100 µM (inactive) | > 100 µM (inactive) | > 100 µM (inactive) | > 100 µM (inactive) | > 100 µM (inactive) | > 100 µM (inactive) | > 100 µM (inactive) | > 100 µM (inactive) | > 100 µM (inactive)
14 | Cc1ccc(C(=O)N(C(C)C)C(C)C)cc1/N=N/N(C)C | > 100 µM (inactive) | > 95.7 µM (inactive) | > 100 µM (inactive) | > 100 µM (inactive) | > 86.9 µM (inactive) | > 100 µM (inactive) | > 61.4 µM (inactive) | > 75.5 µM (inactive) | 41 µM (inactive) | 74.1 µM (inactive) | > 100 µM (inactive) | > 100 µM (inactive) | > 100 µM (inactive) | > 80.5 µM (inactive) | 41.1 µM (inactive) | > 100 µM (inactive) | 18.2 µM (inactive) | > 80 µM (inactive) | > 100 µM (inactive) | 
15 | CC(C)(C)OC(=O)N1CCC23CCCC2C(=O)CC=C13 (stereo not given) |  | > 100 µM (inactive) | > 100 µM (inactive) | > 100 µM (inactive) | > 100 µM (inactive) | > 100 µM (inactive) | > 100 µM (inactive) | > 100 µM (inactive) | > 100 µM (inactive) | > 100 µM (inactive) | > 100 µM (inactive) | > 100 µM (inactive) | > 100 µM (inactive) | > 100 µM (inactive) | > 100 µM (inactive) | > 100 µM (inactive) | 66.4 µM (inactive) | > 100 µM (inactive) | > 100 µM (inactive) | > 100 µM (inactive)
